For assay [1], the target named is T1, Adenosine receptor A1 (Homo sapiens) (UniProt P30542).
T1 sequence (whole entry): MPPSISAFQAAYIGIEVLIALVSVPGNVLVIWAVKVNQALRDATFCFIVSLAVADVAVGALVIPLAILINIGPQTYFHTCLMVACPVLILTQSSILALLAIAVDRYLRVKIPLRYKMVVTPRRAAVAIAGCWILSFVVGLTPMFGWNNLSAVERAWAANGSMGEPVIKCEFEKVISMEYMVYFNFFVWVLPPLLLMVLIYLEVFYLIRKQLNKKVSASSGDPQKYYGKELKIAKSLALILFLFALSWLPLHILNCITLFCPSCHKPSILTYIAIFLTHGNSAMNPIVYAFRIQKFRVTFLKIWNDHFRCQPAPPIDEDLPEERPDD
The assay can be described thus: Displacement of [3H]CCPA from human adenosine A1 receptor expressed in CHO cells assessed for per milligram of protein. In kind it is cell-based.

Assay [2] addresses T2, Adenosine receptor A1 (Homo sapiens, UniProt P30542).
T2 sequence (P30542 whole entry): T1 sequence (whole entry)
The assay can be described thus: Displacement of [3H]DPCPX from human adenosine A1 receptor expressed in CHO cells. In kind it is cell-based. In general terms: Displacement assays read how much labelled ligand stays bound in the presence of the test substance.

For assay [3], the target named is T1, Adenosine receptor A1 (Homo sapiens). The assay can be described thus: Displacement of [3H]DPCPX from human adenosine A1 receptor expressed in CHO cells relative to untreated control. In kind it is cell-based.
The target in assay [4] is Adenosine receptor A2a (Homo sapiens) (UniProt P29274). The assay can be described thus: Displacement of [3H]ZM241385 from human adenosine A2A receptor expressed in CHO cells at 10 uM. In kind it is cell-based.
For assay [5], the target named is T1, Adenosine receptor A1 (Homo sapiens). The assay can be described thus: Displacement of [3H]DPCPX from human adenosine A1 receptor expressed in CHO cells assessed for per milligram of protein. The assay is classed as cell-based.
The target is the same in assay [6]. The assay can be described thus: Activity at human recombinant adenosine A1 receptor expressed in CHO cells assessed as cAMP level at 1 uM. The assay is classed as functional, cell-based. For orientation: cAMP levels reflect the balance of adenylyl cyclase and phosphodiesterase activity.
For assay [7] the target is unchanged. The assay can be described thus: Activity at human recombinant adenosine A1 receptor expressed in CHO cells assessed as cAMP level at 0.01 uM. In kind it is functional, cell-based.
The target is the same in assay [8]. The assay can be described thus: Activity at human recombinant adenosine A1 receptor expressed in CHO cells assessed as of cAMP level at 0.1 uM. In kind it is functional, cell-based.
For assay [9], the target named is T3, Adenosine receptor A3 (Homo sapiens) (UniProt P0DMS8).
T3 sequence (whole entry): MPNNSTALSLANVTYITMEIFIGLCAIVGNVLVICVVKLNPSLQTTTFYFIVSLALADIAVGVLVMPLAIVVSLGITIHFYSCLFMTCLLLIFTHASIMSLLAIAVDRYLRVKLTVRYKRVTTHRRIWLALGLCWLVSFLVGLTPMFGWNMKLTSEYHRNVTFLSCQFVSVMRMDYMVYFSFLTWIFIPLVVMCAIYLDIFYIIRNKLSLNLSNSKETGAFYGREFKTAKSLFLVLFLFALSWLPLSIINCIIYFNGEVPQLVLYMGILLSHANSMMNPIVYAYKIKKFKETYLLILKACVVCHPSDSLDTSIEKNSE
The assay can be described thus: Displacement of [3H]MRE3008F20 from human adenosine A3 receptor expressed in CHO cells at 10 uM. The assay is classed as cell-based.

Assay [10] deals with T1, Adenosine receptor A1 (Homo sapiens). The assay can be described thus: Displacement of [3H]CCPA from human adenosine A1 receptor expressed in CHO cells relative to untreated control. The assay is classed as cell-based.
The target is the same in assay [11]. The assay can be described thus: Displacement of [3H]DPCPX from human adenosine A1 receptor expressed in CHO cells at 10 uM. The assay is classed as cell-based.
Assay [12] has the same target. The assay can be described thus: Activity at human recombinant adenosine A1 receptor expressed in CHO cells assessed as cAMP level at 10 uM. The assay is classed as functional, cell-based.
In assay [13] the target is T2, Adenosine receptor A1. The assay can be described thus: Displacement of [3H]CCPA from human adenosine A1 receptor expressed in CHO cells. In kind it is cell-based.
The target in assay [14] is T1, Adenosine receptor A1 (Homo sapiens). The assay can be described thus: Displacement of [3H]DPCPX from human adenosine A1 receptor expressed in CHO cells at 100 uM. In kind it is cell-based.
In assay [15] the target is T4, Adenosine receptor A1 (Rattus norvegicus, UniProt P25099).
T4 sequence (P25099 whole entry): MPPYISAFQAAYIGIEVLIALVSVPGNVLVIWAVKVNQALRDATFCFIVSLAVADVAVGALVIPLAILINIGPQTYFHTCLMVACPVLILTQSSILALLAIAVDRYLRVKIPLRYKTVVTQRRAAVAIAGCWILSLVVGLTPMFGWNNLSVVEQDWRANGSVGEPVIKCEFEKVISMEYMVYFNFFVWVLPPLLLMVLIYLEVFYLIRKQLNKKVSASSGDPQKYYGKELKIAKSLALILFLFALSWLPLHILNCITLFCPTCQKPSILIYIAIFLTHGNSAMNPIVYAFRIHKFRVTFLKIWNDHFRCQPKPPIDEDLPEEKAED
The assay can be described thus: Displacement of [3H]DPCPX from adenosine A1 receptor in rat membranes. In kind it is cell membranes.

The structures appear in SMILES notation.

A word on the Kd: it is the concentration at which binding is half-saturated. What is called Ki is a dissociation constant, usually derived from enzyme kinetics or from competition with a known ligand. High values mean lower affinity, low ones higher affinity.

Sequence of Adenosine receptor A2a (Homo sapiens) (P29274 whole entry): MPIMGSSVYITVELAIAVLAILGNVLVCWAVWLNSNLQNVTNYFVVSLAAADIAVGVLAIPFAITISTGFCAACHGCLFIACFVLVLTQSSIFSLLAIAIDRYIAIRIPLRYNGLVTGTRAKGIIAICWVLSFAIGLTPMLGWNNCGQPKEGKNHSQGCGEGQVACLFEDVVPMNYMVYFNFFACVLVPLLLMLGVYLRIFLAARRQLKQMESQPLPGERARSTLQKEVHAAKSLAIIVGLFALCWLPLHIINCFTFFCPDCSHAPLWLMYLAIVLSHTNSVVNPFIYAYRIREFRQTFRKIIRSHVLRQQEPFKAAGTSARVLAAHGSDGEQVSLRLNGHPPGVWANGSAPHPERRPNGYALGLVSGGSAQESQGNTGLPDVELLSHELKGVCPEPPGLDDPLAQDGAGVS

`Nc1scc(CN2CCN(C3CCCCC3)CC2)c1C(=O)c1ccc(Cl)cc1`: the Bmax in assay [1] amounted to 622 fmol; in assay [5], 3200 fmol. The Kd on Adenosine receptor A1 [2] is 1.9 nM; on Adenosine receptor A1 [13], 1.1 nM. In addition, the Activity was found to be 0.9 in assay [3]; 0% in [4]; 13% in [6]; 5% in assay [7]; 3% in assay [8]; 5% in assay [9]. Also, the Activity in [10] was 1.2; in assay [11] it was 0%; in assay [12] it was 52%.

For `Nc1scc(CN2CCN(c3ccc(C(F)(F)F)cc3)CC2)c1C(=O)c1ccc(Cl)cc1`, the Bmax in [1] stood at 3990 fmol; in assay [5] it was 3680 fmol. Further, the dissociation constant (Kd) at Adenosine receptor A1 [2] came out at 1.9 nM; on Adenosine receptor A1 [13], 1 nM. Moreover, the Activity in assay [3] amounted to 1.1; in assay [4], 0%; in [6], 84%; in [7], 10%; in [8], 53%; in assay [9], 15%. Moreover, the Activity is 7.7 in [10], 0% in [11] and 87% in assay [12].

As to `Nc1scc(CN2CCN(c3ncccn3)CC2)c1C(=O)c1ccc(Cl)cc1`, the Bmax in [1] was found to be 1450 fmol; in assay [5], 3320 fmol. The dissociation constant Kd is 1.7 nM at Adenosine receptor A1 [2] and 1.1 nM on Adenosine receptor A1 [13]. The Activity came to 1 in assay [3]; 0% in assay [4]; 25% in assay [6]; 9% in assay [7]; 3% in [8]; 0% in assay [9]. For the same molecule, the Activity in [10] came out at 2.8; in [11] it was 0%; in assay [12], 69%.

For `Nc1scc(CN2CCN(c3ccccn3)CC2)c1C(=O)c1ccc(Cl)cc1`, the results for the Bmax in [1] and in [5] were 1810 fmol and 3090 fmol, respectively. The Kd at Adenosine receptor A1 [2] worked out at 1.7 nM; at Adenosine receptor A1 [13], 1.2 nM. Further, the Activity in assay [3] was determined as 0.9; in [4], 4%; in [6], 46%; in assay [7], 9%; in assay [8] it was 5%; in assay [9], 0%. The Activity came to 3.5 in [10], 0% in assay [11] and 69% in [12].

As to `Nc1scc(CN2CCN(c3ccc(Cl)cc3)CC2)c1C(=O)c1ccc(Cl)cc1`, the Bmax amounted to 3630 fmol in [1] and 3650 fmol in assay [5]. Besides, the equilibrium dissociation constant (Kd) at Adenosine receptor A1 [2] was 1.8 nM; on Adenosine receptor A1 [13], 1.1 nM. Further, the Activity in assay [3] was 1.1; in assay [4] it was 3%; in assay [6], 65%; in assay [7], 10%; in assay [8], 48%; in assay [9], 6%. Besides, the Activity in assay [10] was determined as 7; in [11], 0%; in [12], 78%.

Regarding `Nc1scc(CN2CCN(Cc3ccccc3)CC2)c1C(=O)c1ccc(Cl)cc1`, the Bmax in [1] worked out at 3160 fmol; in [5] it was 3420 fmol. In addition, the Kd on Adenosine receptor A1 [2] stood at 1.7 nM; on Adenosine receptor A1 [13], 1.1 nM. In addition, the Activity in assay [3] was found to be 1; in [4], 0%; in [6], 30%; in assay [7], 3%; in assay [8] it was 4%; in assay [9] it was 0%. Further, the results for the Activity in assay [10], in [11] and in assay [12] were 6.1, 0% and 78%, respectively.

Take `Nc1scc(CN2CCN(c3ccc(F)cc3)CC2)c1C(=O)c1ccc(Cl)cc1`: the Bmax amounted to 3470 fmol in [1] and 3560 fmol in assay [5]. For the same molecule, the dissociation constant Kd at Adenosine receptor A1 [2] is 1.8 nM; on Adenosine receptor A1 [13] it was 1 nM. The Activity is 1.1 in assay [3]; 0% in assay [4]; 63% in assay [6]; 3% in assay [7]; 19% in [8]; 17% in [9]. In addition, the values for the Activity in assay [10], in [11] and in assay [12] were 6.7, 0% and 77%, respectively.

In the case of `N#Cc1ccc(N2CCN(Cc3csc(N)c3C(=O)c3ccc(Cl)cc3)CC2)cc1`, the Bmax in [1] turned out to be 2490 fmol; in assay [5], 3260 fmol. In addition, the equilibrium dissociation constant (Kd) at Adenosine receptor A1 [2] amounted to 1.8 nM; at Adenosine receptor A1 [13], 1.1 nM. For the same molecule, the Activity amounted to 1 in assay [3]; 0% in assay [4]; 54% in assay [6]; 12% in assay [7]; 8% in assay [8]; 20% in assay [9]. Moreover, the results for the Activity in [10], in assay [11] and in assay [12] were 4.8, 0% and 72%, respectively.

For `Nc1scc(CN2CCN(c3ccccc3)CC2)c1C(=O)c1ccc(Cl)cc1`, the Bmax in [1] was 3370 fmol; in assay [5], 3520 fmol. For the same molecule, the dissociation constant Kd on Adenosine receptor A1 [2] came to 1.9 nM; on Adenosine receptor A1 [13], 1 nM. Further, the Activity in [3] came out at 1; in [4], 0%; in assay [6], 62%; in assay [7] it was 4%; in [8] it was 26%; in [9], 0%. For the same molecule, the Activity in assay [10] amounted to 6.5; in assay [11], 0%; in assay [12], 78%.

As for `CN1CCN(Cc2csc(N)c2C(=O)c2ccc(Cl)cc2)CC1`, the Bmax in [1] was 570 fmol; in assay [5], 2990 fmol. Moreover, the results for the equilibrium dissociation constant (Kd) at Adenosine receptor A1 [2] and at Adenosine receptor A1 [13] were 1.7 nM and 1.2 nM, respectively. In addition, the Activity was 0.9 in assay [3]; 0% in assay [4]; 1% in assay [6]; 3% in assay [7]; 3% in assay [8]; 0% in assay [9]. The Activity in assay [10] came out at 1.1; in assay [11] it was 3%; in assay [12], 16%.

With `Cc1ccc(N2CCN(Cc3csc(N)c3C(=O)c3ccc(Cl)cc3)CC2)cc1`, the Bmax in assay [1] amounted to 2020 fmol; in [5] it was 3060 fmol. Further, the dissociation constant (Kd) on Adenosine receptor A1 [2] was determined as 1.7 nM; at Adenosine receptor A1 [13] it was 1 nM. Besides, the Activity worked out at 0.9 in [3]; 0% in [4]; 22% in assay [6]; 10% in [7]; 3% in assay [8]; 0% in assay [9]. Moreover, the Activity in assay [10] is 3.9; in assay [11] it was 0%; in assay [12] it was 66%.

On to `Cc1sc(N)c(C(=O)c2cccc(C(F)(F)F)c2)c1C`, for which the Bmax stood at 673 fmol in assay [1] and 3340 fmol in assay [5]. Moreover, the Activity is 42% in assay [14]; 0% in assay [4]; 31% in assay [6]; 8% in [7]; 3% in assay [8]; 21% in assay [9]. Besides, the Activity in [10] is 1.3; in assay [11], 0%; in [12], 57%. For the same molecule, the Ki at Adenosine receptor A1 [15] came to 11000 nM.

For the molecule `Nc1scc(CN2CCN(c3ccc4c(c3)OCO4)CC2)c1C(=O)c1ccc(Cl)cc1`, the Bmax in [1] amounted to 725 fmol; in [5] it was 3190 fmol. The Kd on Adenosine receptor A1 [2] worked out at 1.9 nM; at Adenosine receptor A1 [13] it was 1.1 nM. Moreover, the Activity was 0.9 in [3]; 0% in [4]; 23% in assay [6]; 15% in assay [7]; 13% in assay [8]; 0% in assay [9]. Further, the Activity came to 1.4 in [10], 0% in assay [11] and 34% in [12].

The values above are taken from ChEMBL document CHEMBL1140063, “Synthesis and biological evaluation of 2-amino-3-(4-chlorobenzoyl)-4-[N-(substituted) piperazin-1-yl]thiophenes as potent allosteric enhancers of the A1 adenosine receptor” (J Med Chem, 2008).
